Values of other authors as cited in patent US6417229B1, “α-sulfonylamino hydroxamic acid inhibitors of matrix metalloproteinases for the treatment of peripheral or central nervous system disorders” (Pfizer Inc, priority 1999, dated 2002).

How the values were obtained:
[1] = tested on: Experimental Autoimmune Neuritis (EAN); conditions: Redford et al. 1997
[2] = tested on: Experimental Autoimmune Encephelomyelitis (EAE); conditions: mice with EAE; Gijbels 1994
MMP-9 induction by Aβ = conditions: rat microglia; Gottschall 1996

## C=CC[C@H](C(=O)NO)[C@@H](CC(C)C)C(=O)N[C@@H](Cc1ccccc1)C(=O)NC [BB-1101]
[1]
  effect on EAN: attenuates Experimental Autoimmune Neuritis (EAN)

## CNC(=O)[C@H](Cc1c[nH]c2ccccc12)NC(=O)[C@@H](CC(=O)NO)CC(C)C [GM6001]
[2]
  effect on EAE: suppress the development of, or reverse established, EAE

## COc1ccc2c(c1)c(CC(=O)O)c(C)n2C(=O)c1ccc(Cl)cc1 [indomethacin]
MMP-9 induction by Aβ
  inhibition of MMP-9 induction by Aβ: can be inhibited
